Source: the supplement of paper PMC10307832

Assays:
Experiment in all cases: relative viability (nuclei count vs DMSO), 5 days (fraction); higher = more cells survive
[1] = compound: C1CNCCC1C2=CC(=NN2)C3=CC=NC=C3 + CC(C)C[C@H](NC(=O)[C@H](Cc1ccccc1)NC(=O)c1cnccn1)B(O)O [Bortezomib] (partner 0.002 µM)
Summary of the method: (§1)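 Dosing by pin tool came one day after lung cancer cell lines were seeded in 1536-well plates, using either one drug or a fixed anchor-drug dose plus five library-drug doses (not always all listed) in √10 steps. After 5 days, nuclei were counted on 4× images. Relative viability is treated-well nuclei count divided by vehicle-well nuclei count, and values are medians of duplicate plates.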

[2] = compound: C[C@@H](N)c1ccc(C(=O)Nc2ccnc3[nH]ccc23)cc1 + Cc1cc(Nc2cc(N3CCN(C)CC3)nc(Sc3ccc(NC(=O)C4CC4)cc3)n2)n[nH]1 [Tozasertib] (partner 0.1 µM)
Summary of the method: as §1

Tanzisertib + Vorinostat = compound: O[C@H]1CC[C@H](Nc2ncc3nc(Nc4c(F)cc(F)cc4F)n([C@H]4CCOC4)c3n2)CC1 [Tanzisertib] + O=C(CCCCCCC(=O)Nc1ccccc1)NO [Vorinostat] (partner 1 µM)
Summary of the method: as §1

[3] = compound: C1CNCCC1C2=CC(=NN2)C3=CC=NC=C3 + COc1cc2c(Oc3ccc(NC(=O)C4(C(=O)Nc5ccc(F)cc5)CC4)cc3F)ccnc2cc1OCCCN1CCOCC1 [Foretinib] (partner 0.25 µM)
Summary of the method: as §1

Row | Cell Line | relative viability ([1]; first compound 0.08 µM) | relative viability ([1]; first compound 0.8 µM) | relative viability ([1]; first compound 2.53 µM) | relative viability ([1]; first compound 8 µM) | relative viability ([2]; first compound 0.04 µM) | relative viability ([2]; first compound 0.1265 µM) | relative viability ([2]; first compound 0.4 µM) | relative viability ([2]; first compound 1.265 µM) | relative viability ([2]; first compound 4 µM) | relative viability (Tanzisertib + Vorinostat; first compound 0.08 µM) | relative viability (Tanzisertib + Vorinostat; first compound 0.253 µM) | relative viability (Tanzisertib + Vorinostat; first compound 0.8 µM) | relative viability (Tanzisertib + Vorinostat; first compound 2.53 µM) | relative viability (Tanzisertib + Vorinostat; first compound 8 µM) | relative viability ([3]; first compound 0.08 µM) | relative viability ([3]; first compound 0.8 µM) | relative viability ([3]; first compound 2.53 µM) | relative viability ([3]; first compound 8 µM)
1 | LXF-289 | 1.05 | 1.14 | 0.968 | 0.962 | 0.147 | 0.185 | 0.194 | 0.168 | 0.175 | 0.835 | 0.766 | 0.88 | 0.818 | 0.767 | 0.978 | 1.03 | 0.989 | 0.918
2 | NCI-H23 | 0.729 | 0.866 | 1.1 | 1.24 | 0.377 | 0.358 | 0.425 | – | 0.501 | 0.542 | 0.596 | 0.498 | 0.49 | 0.474 | 0.766 | 1.19 | 1.25 | 1.11
3 | NCI-H322M | 1.27 | 1.19 | 1.39 | 1.29 | 0.491 | 0.521 | 0.494 | – | 0.464 | 0.863 | 0.961 | 0.875 | 0.912 | 0.75 | 0.965 | 1.1 | 1.02 | 1.13
4 | NCI-H441 | – | 0.764 | 0.609 | 0.269 | 0.742 | 0.716 | 0.65 | – | 0.627 | 0.895 | 0.854 | 0.731 | 0.72 | 0.804 | 0.945 | 1.18 | 1.12 | 0.834
5 | NCI-H460 | 0.892 | 1.49 | 1.06 | 1.12 | 0.606 | 0.405 | 0.571 | 0.392 | 0.771 | 0.864 | 0.89 | 0.744 | 0.729 | 0.699 | 0.978 | 1.1 | 1.02 | 1.07
6 | NCI-H520 | 0.365 | 0.558 | 0.559 | 0.573 | 0.52 | 0.462 | 0.448 | 0.535 | 0.424 | 0.866 | 0.749 | 0.789 | 0.724 | 0.73 | 0.613 | 0.722 | 0.811 | 0.545
7 | NCI-H596 | 1 | 1.06 | 1.12 | 1.16 | 0.934 | 0.839 | 0.978 | – | 0.843 | 0.533 | 0.655 | 0.619 | 0.711 | 0.589 | 0.87 | 0.834 | 0.965 | 0.889
8 | NCI-H647 | 0.935 | 0.796 | 1.07 | 0.86 | 0.322 | 0.227 | 0.426 | 0.324 | 0.303 | 0.486 | 0.569 | 0.549 | 0.661 | 1.1 | 0.922 | 1.04 | 1.27 | 1.32
9 | NCI-H650 | 0.803 | 0.689 | 0.949 | 0.734 | – | 0.665 | 0.775 | 0.644 | 0.588 | 0.404 | 0.421 | 0.432 | 0.45 | 0.282 | 1 | 0.924 | 1.06 | 0.998
10 | NCI-H661 | 0.916 | 0.825 | 0.801 | 1.01 | 0.286 | 0.355 | 0.378 | 0.34 | 0.363 | 0.799 | 0.724 | 0.798 | 0.859 | 0.797 | 1.1 | 1.05 | 1.01 | 1.02
11 | NCI-H727 | 0.842 | 0.829 | 1.14 | 0.911 | 0.654 | 0.746 | 0.66 | 0.602 | 0.544 | 1.18 | 1.26 | 1.25 | 1.04 | 1.12 | 0.805 | 0.758 | 1.13 | 0.904
12 | NCI-H838 | 0.823 | 0.939 | 0.739 | 0.73 | 0.268 | 0.281 | 0.224 | 0.219 | 0.189 | 0.745 | 0.73 | 0.733 | 0.676 | 0.651 | 1.03 | 0.996 | 1.08 | 0.996
13 | NCI-H1355 | 1.23 | 1.22 | 1.27 | 1.26 | 0.605 | 0.552 | 0.562 | 0.565 | 0.555 | 0.722 | 0.608 | 0.642 | 0.67 | 0.628 | 0.906 | 0.938 | 1.05 | 0.923
14 | NCI-H1437 | 0.495 | 0.607 | 0.552 | 0.462 | 0.462 | 0.433 | 0.448 | 0.436 | 0.408 | 0.876 | 0.896 | 0.88 | 0.895 | 0.97 | 1.21 | 1.32 | 1.25 | 1.28
15 | NCI-H1650 | 0.212 | 0.184 | 0.214 | 0.204 | 0.386 | 0.483 | 0.394 | 0.291 | 0.37 | 0.551 | 0.601 | 0.501 | 0.625 | 0.491 | 0.798 | 0.98 | 1.16 | 1.21
16 | NCI-H1651 | 0.907 | 0.923 | 1.02 | 0.949 | 0.844 | 0.602 | 0.798 | 0.871 | 0.885 | 0.575 | 0.603 | 0.513 | 0.517 | 0.549 | 0.763 | 0.839 | 0.7 | 0.851
17 | NCI-H1666 | 0.865 | 0.724 | 0.959 | 0.962 | 0.605 | 0.618 | 0.63 | 0.698 | 0.593 | 1.03 | 0.988 | 1.11 | 1.01 | 1.05 | 0.887 | 0.987 | 0.963 | 1.03
18 | NCI-H1734 | 0.97 | 1.04 | 1.21 | 1.03 | 0.263 | 0.247 | 0.259 | 0.213 | 0.202 | 0.966 | 0.781 | 0.756 | 0.906 | 0.81 | 0.81 | 0.919 | 0.992 | 0.836
